Data: paper PMC5862592, “CDK8/19 inhibition induces premature G1/S transition and ATR-dependent cell death in prostate cancer cells” (Oncotarget, 2018)
Where two headings read alike, the source gives them in different places.

How the values were obtained:
Experiment in all cases: biochemical
Design in all cases: KINOMEscan active site-directed competition binding assay (DiscoveRx), 456 kinases, per cent of control at 300 nM
Details in all cases: read-out: Percent of Control (%)
[1] = target: MAP3K3 (Homo sapiens, UniProt Q99759)
Summary of the method: (§1)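 At 300 nmol/L, compounds were assessed for kinase binding in an active site-directed competition format covering 456 kinases.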

[2] = target: KIT(L576P) (Homo sapiens, UniProt P10721, L576P)
Summary of the method: as §1

[3] = target: LRRK2 (Homo sapiens, UniProt Q5S007)
Summary of the method: as §1

[4] = target: BRSK1 (Homo sapiens, UniProt Q8TDC3)
Summary of the method: as §1

[5] = target: MKNK2 (Homo sapiens, UniProt Q9HBH9)
Summary of the method: as §1

[6] = target: PKNB(M.tuberculosis) (Mycobacterium tuberculosis, UniProt P9WI81)
Summary of the method: as §1

[7] = target: RIOK1 (Homo sapiens, UniProt Q9BRS2)
Summary of the method: as §1

[8] = target: ACVR2A (Homo sapiens, UniProt P27037)
Summary of the method: as §1

[9] = target: LCK (Homo sapiens, UniProt P06239)
Summary of the method: as §1

[10] = target: ACVR1B (Homo sapiens, UniProt P36896)
Summary of the method: as §1

[11] = target: TXK (Homo sapiens, UniProt P42681)
Summary of the method: as §1

[12] = target: MAP3K2 (Homo sapiens, UniProt Q9Y2U5)
Summary of the method: as §1

[13] = target: T1, YANK3 (Homo sapiens, UniProt Q86UX6)
T1 construct: gene STK32C
Summary of the method: as §1

[14] = target: TAOK3 (Homo sapiens, UniProt Q9H2K8)
Summary of the method: as §1

[15] = target: EGFR(E746-A750del) (Homo sapiens, UniProt P00533, DEL746-750)
Summary of the method: as §1

[16] = target: T2, S6K1 (Homo sapiens, UniProt P23443)
T2 construct: gene RPS6KB1
Summary of the method: as §1

[17] = target: T3, CDK4-cyclinD3 (Homo sapiens, UniProt P11802)
T3 construct: cyclinD3
Summary of the method: as §1

[18] = target: TTK (Homo sapiens, UniProt P33981)
Summary of the method: as §1

[19] = target: T4, ABL1(F317L)-phosphorylated (Homo sapiens, UniProt P00519, F317L)
T4 construct: phosphorylated
Summary of the method: as §1

[20] = target: SRPK1 (Homo sapiens, UniProt Q96SB4)
Summary of the method: as §1

[21] = target: T5, PFTK1 (Homo sapiens, UniProt O94921)
T5 construct: gene CDK14
Summary of the method: as §1

[22] = target: ACVRL1 (Homo sapiens, UniProt P37023)
Summary of the method: as §1

Chain of MKNK2 (Q9HBH9 whole entry): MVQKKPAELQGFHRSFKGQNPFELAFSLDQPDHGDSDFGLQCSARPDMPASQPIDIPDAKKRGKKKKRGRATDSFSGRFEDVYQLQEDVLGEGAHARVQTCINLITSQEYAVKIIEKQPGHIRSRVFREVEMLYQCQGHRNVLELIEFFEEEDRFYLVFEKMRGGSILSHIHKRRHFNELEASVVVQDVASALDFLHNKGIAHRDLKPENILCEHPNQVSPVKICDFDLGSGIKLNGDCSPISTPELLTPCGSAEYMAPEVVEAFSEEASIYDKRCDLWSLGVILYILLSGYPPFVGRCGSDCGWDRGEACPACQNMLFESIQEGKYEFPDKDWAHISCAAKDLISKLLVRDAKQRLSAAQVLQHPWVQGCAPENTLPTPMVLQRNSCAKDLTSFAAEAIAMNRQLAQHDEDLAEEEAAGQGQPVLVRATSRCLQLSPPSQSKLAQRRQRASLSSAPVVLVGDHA
Chain of LCK (P06239 whole entry): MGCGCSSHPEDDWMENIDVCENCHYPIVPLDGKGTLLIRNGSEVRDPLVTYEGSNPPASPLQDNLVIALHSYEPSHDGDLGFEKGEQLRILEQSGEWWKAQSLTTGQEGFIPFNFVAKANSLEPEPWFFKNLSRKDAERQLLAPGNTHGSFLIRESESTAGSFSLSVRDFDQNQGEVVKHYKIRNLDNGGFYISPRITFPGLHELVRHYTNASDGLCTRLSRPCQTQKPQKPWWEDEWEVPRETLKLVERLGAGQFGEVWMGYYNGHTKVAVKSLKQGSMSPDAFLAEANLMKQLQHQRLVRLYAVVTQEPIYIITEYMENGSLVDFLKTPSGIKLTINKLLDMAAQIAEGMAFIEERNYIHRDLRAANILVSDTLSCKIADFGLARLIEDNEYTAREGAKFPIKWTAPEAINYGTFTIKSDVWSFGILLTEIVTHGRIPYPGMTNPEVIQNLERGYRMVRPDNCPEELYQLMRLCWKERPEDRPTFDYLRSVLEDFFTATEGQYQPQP
Chain of SRPK1 (Q96SB4 whole entry): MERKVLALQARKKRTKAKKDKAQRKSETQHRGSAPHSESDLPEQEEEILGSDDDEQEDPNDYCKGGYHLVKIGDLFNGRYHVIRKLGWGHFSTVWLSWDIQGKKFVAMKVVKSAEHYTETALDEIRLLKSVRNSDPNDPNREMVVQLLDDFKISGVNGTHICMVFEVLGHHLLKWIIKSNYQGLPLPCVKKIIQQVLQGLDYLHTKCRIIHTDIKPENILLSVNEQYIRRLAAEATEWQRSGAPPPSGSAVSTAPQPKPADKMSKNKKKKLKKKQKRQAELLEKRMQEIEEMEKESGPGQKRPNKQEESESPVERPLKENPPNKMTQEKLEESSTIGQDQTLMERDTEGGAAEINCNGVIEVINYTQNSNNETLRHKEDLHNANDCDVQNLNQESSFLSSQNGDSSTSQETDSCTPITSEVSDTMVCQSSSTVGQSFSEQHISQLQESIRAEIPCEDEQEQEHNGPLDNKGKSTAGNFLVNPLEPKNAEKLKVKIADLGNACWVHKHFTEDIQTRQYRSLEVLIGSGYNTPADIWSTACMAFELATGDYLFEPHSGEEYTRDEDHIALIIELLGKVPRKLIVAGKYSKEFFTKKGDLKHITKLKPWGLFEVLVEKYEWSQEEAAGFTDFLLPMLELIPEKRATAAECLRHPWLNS
Chain of KIT(L576P) (P10721 whole entry L576P): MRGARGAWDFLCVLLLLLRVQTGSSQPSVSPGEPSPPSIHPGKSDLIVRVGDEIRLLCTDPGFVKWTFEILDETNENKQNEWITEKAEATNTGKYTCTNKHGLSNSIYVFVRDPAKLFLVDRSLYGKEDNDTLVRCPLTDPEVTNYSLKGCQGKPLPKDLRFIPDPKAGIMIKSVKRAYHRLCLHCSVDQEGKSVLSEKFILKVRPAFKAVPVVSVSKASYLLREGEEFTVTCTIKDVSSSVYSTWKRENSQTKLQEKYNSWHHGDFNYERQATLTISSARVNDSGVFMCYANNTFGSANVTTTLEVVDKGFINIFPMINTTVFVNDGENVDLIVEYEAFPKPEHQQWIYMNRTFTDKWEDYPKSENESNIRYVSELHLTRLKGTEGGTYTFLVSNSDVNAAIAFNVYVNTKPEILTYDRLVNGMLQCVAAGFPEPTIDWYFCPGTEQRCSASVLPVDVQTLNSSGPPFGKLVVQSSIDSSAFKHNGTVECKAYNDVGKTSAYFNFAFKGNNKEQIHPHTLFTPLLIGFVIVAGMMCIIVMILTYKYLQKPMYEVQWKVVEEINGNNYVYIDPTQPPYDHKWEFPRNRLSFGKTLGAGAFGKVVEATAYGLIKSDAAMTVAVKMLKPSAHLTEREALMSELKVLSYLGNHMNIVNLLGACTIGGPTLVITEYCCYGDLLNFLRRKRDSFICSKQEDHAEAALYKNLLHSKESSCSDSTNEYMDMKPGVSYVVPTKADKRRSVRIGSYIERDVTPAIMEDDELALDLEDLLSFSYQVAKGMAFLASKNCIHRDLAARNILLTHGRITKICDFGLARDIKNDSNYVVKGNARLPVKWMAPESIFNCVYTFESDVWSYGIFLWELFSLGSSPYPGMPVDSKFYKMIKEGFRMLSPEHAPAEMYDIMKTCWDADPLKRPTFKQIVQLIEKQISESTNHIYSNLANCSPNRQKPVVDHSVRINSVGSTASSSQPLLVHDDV
T4 sequence (P00519 whole entry F317L): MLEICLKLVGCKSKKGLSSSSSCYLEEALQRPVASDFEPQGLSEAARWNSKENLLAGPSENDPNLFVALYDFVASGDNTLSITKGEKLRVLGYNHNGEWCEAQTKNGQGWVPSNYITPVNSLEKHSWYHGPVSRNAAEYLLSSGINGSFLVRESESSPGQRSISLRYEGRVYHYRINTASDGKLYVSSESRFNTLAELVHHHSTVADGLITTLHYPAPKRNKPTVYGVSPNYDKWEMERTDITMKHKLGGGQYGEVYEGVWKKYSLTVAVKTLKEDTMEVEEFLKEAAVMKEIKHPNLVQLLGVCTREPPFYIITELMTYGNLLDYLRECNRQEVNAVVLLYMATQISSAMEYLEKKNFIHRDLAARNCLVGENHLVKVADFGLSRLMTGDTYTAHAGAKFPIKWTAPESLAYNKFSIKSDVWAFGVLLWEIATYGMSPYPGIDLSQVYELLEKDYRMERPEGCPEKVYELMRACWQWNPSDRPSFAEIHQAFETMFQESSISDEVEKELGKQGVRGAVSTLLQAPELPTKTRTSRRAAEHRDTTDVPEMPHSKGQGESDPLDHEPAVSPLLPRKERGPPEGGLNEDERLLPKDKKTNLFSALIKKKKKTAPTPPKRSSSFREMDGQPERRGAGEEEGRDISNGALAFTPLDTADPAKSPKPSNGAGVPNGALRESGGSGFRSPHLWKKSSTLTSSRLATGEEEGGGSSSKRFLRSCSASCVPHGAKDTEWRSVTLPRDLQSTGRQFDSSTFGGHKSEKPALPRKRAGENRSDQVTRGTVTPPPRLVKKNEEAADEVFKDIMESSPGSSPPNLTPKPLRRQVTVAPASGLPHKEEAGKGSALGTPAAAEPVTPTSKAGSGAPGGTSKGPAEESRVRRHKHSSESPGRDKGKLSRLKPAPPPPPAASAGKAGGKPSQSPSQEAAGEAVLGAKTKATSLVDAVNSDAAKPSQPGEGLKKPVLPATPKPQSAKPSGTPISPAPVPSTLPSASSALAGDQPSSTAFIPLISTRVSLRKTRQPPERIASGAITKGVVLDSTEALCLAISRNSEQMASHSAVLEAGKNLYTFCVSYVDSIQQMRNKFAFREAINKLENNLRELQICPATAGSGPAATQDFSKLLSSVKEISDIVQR
T1 sequence (Q86UX6 whole entry): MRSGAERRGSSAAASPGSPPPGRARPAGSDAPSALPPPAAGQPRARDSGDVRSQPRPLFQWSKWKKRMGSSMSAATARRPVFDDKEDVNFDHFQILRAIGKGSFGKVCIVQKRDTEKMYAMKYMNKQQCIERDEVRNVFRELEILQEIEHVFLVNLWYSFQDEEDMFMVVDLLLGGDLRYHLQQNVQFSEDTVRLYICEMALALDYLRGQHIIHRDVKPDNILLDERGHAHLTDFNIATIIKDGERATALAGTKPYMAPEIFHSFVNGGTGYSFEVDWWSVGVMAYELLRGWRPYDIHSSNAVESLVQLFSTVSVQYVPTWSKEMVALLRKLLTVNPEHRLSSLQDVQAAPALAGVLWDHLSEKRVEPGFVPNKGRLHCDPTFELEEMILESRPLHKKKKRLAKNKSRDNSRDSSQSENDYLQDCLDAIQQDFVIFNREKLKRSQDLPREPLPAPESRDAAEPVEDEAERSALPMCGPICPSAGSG
Chain of ACVRL1 (P37023 whole entry): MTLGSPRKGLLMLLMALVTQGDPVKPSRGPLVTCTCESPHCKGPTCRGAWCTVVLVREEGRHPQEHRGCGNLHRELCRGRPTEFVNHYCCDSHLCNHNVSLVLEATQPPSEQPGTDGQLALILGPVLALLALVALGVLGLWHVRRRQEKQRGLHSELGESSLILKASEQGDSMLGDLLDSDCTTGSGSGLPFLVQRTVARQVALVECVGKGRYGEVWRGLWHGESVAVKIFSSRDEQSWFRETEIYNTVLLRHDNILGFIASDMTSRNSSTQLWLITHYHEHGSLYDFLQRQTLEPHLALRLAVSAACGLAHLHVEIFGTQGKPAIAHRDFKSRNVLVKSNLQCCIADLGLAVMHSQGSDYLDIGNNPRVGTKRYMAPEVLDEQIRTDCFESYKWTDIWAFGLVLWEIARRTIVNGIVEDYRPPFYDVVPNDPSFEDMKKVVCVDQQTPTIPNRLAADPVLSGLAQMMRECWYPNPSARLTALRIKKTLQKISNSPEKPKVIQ

O=C(/C=C/c1cnccc1-c1ccc(F)cc1)Nc1ccc(CCc2nnco2)cc1 [T-418, (2E)-3-(4-(4-fluorophenyl)pyridin-3-yl)-N-(4-(2-(1,3,4-oxadiazol-2-yl)ethyl)phenyl)acrylamide]
remaining binding at 0.3 µM ([1]; sheet T-418): 94%
remaining binding at 0.3 µM ([2]; sheet T-418): 100%
remaining binding at 0.3 µM ([3]; sheet T-418): 94%
remaining binding at 0.3 µM ([4]; sheet T-418): 100%
remaining binding at 0.3 µM ([5]; sheet T-418): 97%
remaining binding at 0.3 µM ([6]; sheet T-418): 84%
remaining binding at 0.3 µM ([7]; sheet T-418): 97%
remaining binding at 0.3 µM ([8]; sheet T-418): 91%
remaining binding at 0.3 µM ([9]; sheet T-418): 98%
remaining binding at 0.3 µM ([10]; sheet T-418): 77%
remaining binding at 0.3 µM ([11]; sheet T-418): 72%
remaining binding at 0.3 µM ([12]; sheet T-418): 100%
remaining binding at 0.3 µM ([13]; sheet T-418): 100%
remaining binding at 0.3 µM ([14]; sheet T-418): 90%
remaining binding at 0.3 µM ([15]; sheet T-418): 92%
remaining binding at 0.3 µM ([16]; sheet T-418): 100%
remaining binding at 0.3 µM ([17]; sheet T-418): 95%
remaining binding at 0.3 µM ([18]; sheet T-418): 90%
remaining binding at 0.3 µM ([19]; sheet T-418): 100%
remaining binding at 0.3 µM ([20]; sheet T-418): 61%
remaining binding at 0.3 µM ([21]; sheet T-418): 87%
remaining binding at 0.3 µM ([22]; sheet T-418): 77%

Cc1ncccc1Oc1sc(C(N)=O)c2c1-c1c(cnn1C)CC2 [T-474, 1-methyl-8-((2-methylpyridin-3-yl)oxy)-4,5-dihydro-1H-thieno[3,4-g]indazole-6-carboxamide]
remaining binding at 0.3 µM [1]: 100%
remaining binding at 0.3 µM [2]: 100%
remaining binding at 0.3 µM [3]: 95%
remaining binding at 0.3 µM [4]: 100%
remaining binding at 0.3 µM [5]: 86%
remaining binding at 0.3 µM [6]: 75%
remaining binding at 0.3 µM [7]: 98%
remaining binding at 0.3 µM [8]: 87%
remaining binding at 0.3 µM [9]: 100%
remaining binding at 0.3 µM [10]: 77%
remaining binding at 0.3 µM [11]: 66%
remaining binding at 0.3 µM [12]: 100%
remaining binding at 0.3 µM [13]: 100%
remaining binding at 0.3 µM [14]: 88%
remaining binding at 0.3 µM [15]: 87%
remaining binding at 0.3 µM [16]: 100%
remaining binding at 0.3 µM [17]: 98%
remaining binding at 0.3 µM [18]: 97%
remaining binding at 0.3 µM [19]: 100%
remaining binding at 0.3 µM [20]: 100%
remaining binding at 0.3 µM [21]: 100%
remaining binding at 0.3 µM [22]: 87%
